Data on one compound can be found in patent publication EP0318620A1, “Herbicidal sulfonamides” (E.I. DU PONT DE NEMOURS AND COMPANY, priority 1987, dated 1989).

The subject of experiment [1] is crabgrass. The experiment in a line: Test A greenhouse herbicide test, pre- and postemergence. The class given is in vivo, Digitaria spp. As to conditions: PREEMERGENCE; RATE 0.01 KG/HA; rated after sixteen days. An excerpt: Seeds of crabgrass (Digitaria spp.), barnyardgrass (Echinochloa crusgalli), cheatgrass (Bromus Secalinus), giant foxtail (Setaria faberii), wild oats (Avena fatua), velvetleaf (Abutilon theophrasti), morningglory (Ipomoea spp. , cocklebur (Xanthium pensylvanicum). sorghum, corn, barley, soybean, sugarbeet, cotton, rice, wheat and purple nutsedge (Cyperus rotundus) tubers were planted and treated preemergence with the test chemicals dissolved in a non-phytotoxic solvent. At the same time, these crop and weed species were treated with a soil/foliage application. At the time of treatment, the plants ranged in height from 2 to 18 cm. Treated plants and controls were maintained in a greenhouse for sixteen days, after which all species were compared to controls and visually rated for response to treatment. The ratings, summarized in Table A, are based on a numerical scale extending from 0 = no injury, to 10 = complete kill. The accompanying descriptive symbols have the following meanings: • B = burn; • C = chlorosis/necrosis; • D = defoliation; • E = emergence inhibition; • G = growth retardation; • H = formative effect; • U = unusual pigmentation; • X = axillary stimulation; • S = albinism; and • 6Y = abscised buds or flowers.

For a further experiment, the system named is sicklepod. The experiment in a line: Test B pan test in Sassafras sandy loam soil, pre- and postemergence. As to conditions: scale 0 to 100. The class given is in vivo, Cassia obtusifolia. The text has this:
(§1) Three round pans (25 cm diameter by 12.5 cm deep) were filled with Sassafras sandy loam soil. One pan was planted with nutsedge (Cyperus rotundus) tubers, crabgrass (Digitaria sanguinalis), sicklepod (Cassia obtusifolia), jimsonweed (Datura stramonium), velvetleaf (Abutilon theophrasti), lambsquarters (Chenopodim album), rice (Oryza sativa) and teaweed (Sida spinosa). The second pot was planted with green foxtail (Setaria viridis), cocklebur (Xantium pensyivanicum), morningglory (lpomoea hederacea), cotton (Gossypium hirsutum), johnsongrass (Sorghum halepense), barnyardgrass (Echinochloa crusgalli), corn (Zea mays), soybean (Glycine max) and giant foxtail (Setaria faberi). The third pot was planted with wheat (Triticum aestivum), barley (Hordeum vulgare), wild buckwheat (Polgonum convolvulus L.), cheatgrass (Bromus secalinus L.), sugarbeet (Beta vulgaris), wild oats (Avena fatua), viola (Viola arvensis), blackgrass (Alopecurus myosuroides), and rape (Brassica napus). The plants were grown for approximately fourteen days, then sprayed postemergence with the chemicals dissolved in a non-phytotoxic solvent.
(§2) Three round pans (25 cm diameter by 12.5 cm deep) were filled with Sassafras sandy loam soil. One pan was planted with nutsedge tubers, crabgrass, sicklepod, jimsonweed, velvetleaf, lambsquarters, rice and teaweed. The second pot was planted with green foxtail, cocklebur, morningglory, cottom, johnsongrass, . barnyardgrass, corn, soybean and giant foxtail. The third pot was planted with wheat, barley, wild buckwheat, cheatgrass, sugarbeet, wild oat, viola, blackgrass and rape. The three pans were sprayed preemer gence with the chemicals dissolved in a non-phytotoxic solvent.
(§3) Treated plants and controls were maintained in the greenhouse for 24 days, then all rated plants were compared to controls and visually rated for plant response.
(§4) A dash (-) response means no test.

The subject of experiment [2] is crabgrass. Described as above. As to conditions: scale 0 to 100. The class given is in vivo, Digitaria sanguinalis.
Excerpt: as §1, §2, §3, §4

On to `CCOC(=O)c1c(CC#N)cccc1S(=O)(=O)NC(=O)Nc1nc(OC)cc(OC)n1` [Compound 3, 2-(cyanomethyl)-6 [[(4,6-dimethoxypyrimidin-2-yl)-aminocarbonyl]aminosulfonyl]benzoic acid, ethyl ester], for which the “CRABGRASS visual rating of response to treatment” value in the experiment with crabgrass [1] worked out at 4G. The CASSIA response rating with sicklepod (POSTEMERGENCE, RATE 0001 G/HA) is listed as 30; in the experiment on sicklepod (POSTEMERGENCE, RATE 0004 G/HA) it was 50; in the experiment on sicklepod (POSTEMERGENCE, RATE 0016 G/HA) it was 70; in the experiment on sicklepod (POSTEMERGENCE, RATE 0062 G/HA), 90; with sicklepod (PREEMERGENCE, RATE 0004 G/HA), 0; with sicklepod (PREEMERGENCE, RATE 0016 G/HA) it was 0. The CASSIA response rating in the experiment on sicklepod (PREEMERGENCE, RATE 0062 G/HA) is recorded as 0. Also, the CRABGRASS response rating in the experiment on crabgrass [2] (POSTEMERGENCE, RATE 0001 G/HA) amounted to 0; in the experiment with crabgrass [2] (POSTEMERGENCE, RATE 0004 G/HA), 30; in the experiment on crabgrass [2] (POSTEMERGENCE, RATE 0016 G/HA) it was 50; in the experiment with crabgrass [2] (POSTEMERGENCE, RATE 0062 G/HA) it was 70; in the experiment with crabgrass [2] (PREEMERGENCE, RATE 0004 G/HA), 0; with crabgrass [2] (PREEMERGENCE, RATE 0016 G/HA), 30. Moreover, in the experiment with crabgrass [2] (PREEMERGENCE, RATE 0062 G/HA), the CRABGRASS response rating amounted to 70.
